According to publication PMC6797236, “Bacillus subtilis PgcA moonlights as a phosphoglucosamine mutase in support of peptidoglycan synthesis” (PLoS Genetics, 2019):

Tests used:
Type in all cases: biochemical
PgcA [1] = target: T1, PgcA (Bacillus subtilis, UniProt P18159); assay: LC-MS assay of glucose 6-phosphate formation; conditions: 5 mM MgCl2, 20 uM glucose-1,6-bisphosphate, 50 mM Tris-HCl pH 8.0; PGM reaction
T1 construct: N-terminal 6xHis tag, tag cleavage not mentioned; expressed in E. coli DH5alpha, Ni-NTA purified
T1 sequence (P18159 1-581): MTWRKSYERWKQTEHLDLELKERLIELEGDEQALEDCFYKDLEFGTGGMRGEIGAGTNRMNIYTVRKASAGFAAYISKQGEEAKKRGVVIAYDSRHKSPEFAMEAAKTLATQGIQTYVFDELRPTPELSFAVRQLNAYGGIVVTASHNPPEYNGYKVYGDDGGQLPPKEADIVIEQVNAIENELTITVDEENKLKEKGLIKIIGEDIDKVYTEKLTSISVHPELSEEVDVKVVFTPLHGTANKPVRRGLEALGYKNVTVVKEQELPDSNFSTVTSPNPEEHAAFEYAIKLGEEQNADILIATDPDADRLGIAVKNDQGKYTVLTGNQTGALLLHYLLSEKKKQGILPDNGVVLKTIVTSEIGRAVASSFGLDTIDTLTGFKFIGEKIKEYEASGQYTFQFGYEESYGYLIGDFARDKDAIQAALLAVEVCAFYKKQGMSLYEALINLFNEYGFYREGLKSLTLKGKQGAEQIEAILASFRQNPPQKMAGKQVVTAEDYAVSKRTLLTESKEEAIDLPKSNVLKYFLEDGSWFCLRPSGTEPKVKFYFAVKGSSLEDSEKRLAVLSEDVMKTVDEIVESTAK

PgcA [2] = target: T1, PgcA; assay: LC-MS assay of glucosamine 6-phosphate formation; conditions: 5 mM MgCl2, 20 uM glucose-1,6-bisphosphate, 50 mM Tris-HCl pH 8.0; PNGM reaction
GlmM = target: T2, GlmM (Bacillus subtilis, UniProt O34824); assay: LC-MS assay of glucosamine 6-phosphate formation; conditions: 5 mM MgCl2, 0.7 mM glucose-1,6-bisphosphate, 50 mM Tris-HCl pH 8.0; PNGM reaction
T2 construct: purified protein; tag and expression of GlmM not described separately
T2 sequence (O34824 1-448): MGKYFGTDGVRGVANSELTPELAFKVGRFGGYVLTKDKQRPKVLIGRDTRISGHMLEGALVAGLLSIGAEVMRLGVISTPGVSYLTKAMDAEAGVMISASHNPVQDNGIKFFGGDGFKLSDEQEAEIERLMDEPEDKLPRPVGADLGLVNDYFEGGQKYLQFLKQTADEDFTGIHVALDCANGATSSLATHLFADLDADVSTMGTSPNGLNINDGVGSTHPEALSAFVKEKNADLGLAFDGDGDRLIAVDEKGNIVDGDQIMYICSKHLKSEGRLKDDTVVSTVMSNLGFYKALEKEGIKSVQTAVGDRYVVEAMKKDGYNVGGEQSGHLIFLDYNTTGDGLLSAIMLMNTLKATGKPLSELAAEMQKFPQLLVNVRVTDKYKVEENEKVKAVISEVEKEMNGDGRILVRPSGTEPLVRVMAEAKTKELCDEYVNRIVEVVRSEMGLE

| Compound | KM (PgcA [1]) | KM (PgcA [2]) | KM (GlmM) |
| --- | --- | --- | --- |
| O=P(O)(O)O[C@H]1O[C@H](CO)[C@@H](O)[C@H](O)[C@H]1O [Glc-1-P] | Both PgcA and PgcA G47S were equally active in the PGM reaction |  |  |
| N[C@H]1[C@@H](OP(=O)(O)O)O[C@H](CO)[C@@H](O)[C@@H]1O [GlcN-1-P] |  | using GlcN-1-P as substrate to monitor the PNGM reaction | GlmM from B. subtilis, which had an affinity for GlcN-1-P substrate |
